Results reported in patent US8258160B2, “SCD1 inhibitors triazole and tetrazole compounds” (Novartis AG, priority 2006, dated 2012).

| Compound | melting point |
| --- | --- |
| Cc1nc(-c2cn(Cc3ccccc3)nn2)sc1C(=O)NCc1cccnc1 [Example 4, 2-(1-benzyl-1H-1,2,3-triazol-4-yl)-4-methyl-N-(pyridin-3-ylmethyl)thiazole-5-carboxamide] | 212 to 213 °C |
| Cc1nc(-n2[nH]c(C)c(Cc3ccc(Cl)cc3)c2=O)sc1C(=O)NCc1cccnc1 [Example 33, 2-(4-(4-chlorobenzyl)-3-methyl-5-oxo-2,5-dihydro-1H-pyrazol-1-yl)-4-methyl-N-(pyridin-3-ylmethyl)thiazole-5-carboxamide] | 215 to 217 °C |
| Cc1cc(-n2nnc(-c3ccccc3)n2)sc1C(=O)NCc1ccccc1 [Example 21, N-benzyl-3-methyl-5-(5-phenyl-2H-tetrazol-2-yl)thiophene-2-carboxamide] | 155 to 158 °C |
| Cc1cc(-c2n[nH]c(Cc3ccccc3)n2)sc1C(=O)NCc1ccccc1 [Example 9, N-benzyl-5-(5-benzyl-1H-1,2,4-triazol-3-yl)-3-methylthiophene-2-carboxamide] | 168 to 171 °C |
| Cc1cc(-c2ncn(Cc3ccc(F)cc3)n2)sc1C(=O)NCc1ccccc1 [Example 23, N-benzyl-5-(1-(4-fluorobenzyl)-1H-1,2,4-triazol-3-yl)-3-methylthiophene-2-carboxamide] | 128 to 130 °C |
| Cc1nc(-c2cn(CC(F)(F)c3ccccc3)nn2)sc1C(=O)NCc1cccnc1 [Example 30, 2-(1-(2,2-difluoro-2-phenylethyl)-1H-1,2,3-triazol-4-yl)-4-methyl-N-(pyridin-3-ylmethyl)thiazole-5-carboxamide] | 150 to 151 °C |
| Cc1nc(-n2cc(CCCc3ccccc3)nn2)sc1C(=O)NCc1cccnc1 [Example 14, 4-methyl-2-(4-(3-phenylpropyl)-1H-1,2,3-triazol-1-yl)-N-(pyridin-3-ylmethyl)thiazole-5-carboxamide] | 108 to 110 °C |
| Cc1nc(-c2noc(Cc3ccccc3)n2)sc1C(=O)NCc1ccccc1 [Example 34, N-benzyl-2-(5-benzyl-1,2,4-oxadiazol-3-yl)-4-methylthiazole-5-carboxamide] | 124 to 125 °C |
| Cc1nc(-c2nn[nH]n2)sc1C(=O)NCc1cccnc1 [Example 6, 4-methyl-N-(pyridin-3-ylmethyl)-2-(2H-tetrazol-5-yl)thiazole-5-carboxamide] | > 200 °C (dec.) |
| Cc1nc(-n2cc(C(=O)NCc3ccccc3)nn2)sc1C(=O)NCc1ccccc1 [Example 18, N-benzyl-2-(4-(benzylcarbamoyl)-1H-1,2,3-triazol-1-yl)-4-methylthiazole-5-carboxamide] | 178 to 180 °C |
| Cc1nc(-n2cc(C(=O)c3ccccc3)nn2)sc1C(=O)NCc1ccccc1 [Example 11, 2-(4-benzoyl-1H-1,2,3-triazol-1-yl)-N-benzyl-4-methylthiazole-5-carboxamide] | 176 to 178 °C |
| Cc1nc(-c2cnc(Cc3ccccc3)o2)sc1C(=O)NCc1ccccc1 [Example 36, N-benzyl-2-(2-benzyloxazol-5-yl)-4-methylthiazole-5-carboxamide] | 141 to 142 °C |
| Cc1nc(-c2n[nH]c(Cc3ccccc3)n2)sc1C(=O)NCc1ccccc1 [Example 8, N-benzyl-2-(5-benzyl-1H-1,2,4-triazol-3-yl)-4-methylthiazole-5-carboxamide] | 235 to 237 °C |
| Cc1nc(-n2cc(-c3ccccc3)nn2)sc1C(=O)NCc1ccccc1 [Example 10, N-benzyl-4-methyl-2-(4-phenyl-1H-1,2,3-triazol-1-yl)thiazole-5-carboxamide] | 175 to 178 °C |

The next lines start with the values.

| melting point | Compound |
| --- | --- |
| 146 to 149 °C | Cc1nc(-n2cc([C@H](O)c3ccccc3)nn2)sc1C(=O)NCc1ccccc1 [Example 10.12, (R)—N-benzyl-2-(4-(hydroxy(phenyl)methyl)-1H-1,2,3-triazol-1-yl)-4-methylthiazole-5-carboxamide] |
| 123 to 126 °C | Cc1nc(-n2cc(-c3ccsc3)nn2)sc1C(=O)NCc1ccccc1 [Example 10.11, N-benzyl-4-methyl-2-(4-(thiophen-3-yl)-1H-1,2,3-triazol-1-yl)thiazole-5-carboxamide] |
| 94 to 97 °C | Cc1nc(-n2cc(CCCc3ccccc3)nn2)sc1C(=O)NCc1ccccc1 [Example 10.3, N-benzyl-4-methyl-2-(4-(3-phenylpropyl)-1H-1,2,3-triazol-1-yl)thiazole-5-carboxamide] |
| 203 to 205 °C | Cc1nc(-n2cc(-c3ccc(F)cc3)nn2)sc1C(=O)NCc1ccccc1 [Example 10.13, N-benzyl-2-(4-(4-fluorophenyl)-1H-1,2,3-triazol-1-yl)-4-methylthiazole-5-carboxamide] |
| 154 to 155 °C | Cc1cc(-c2ncn(Cc3ccc(F)cc3)n2)sc1C(=O)NCc1cccnc1 [Example 23.1, 5-(1-(4-fluorobenzyl)-1H-1,2,4-triazol-3-yl)-3-methyl-N-(pyridin-3-ylmethyl)thiophene-2-carboxamide] |
| 204 to 205 °C | Cc1nc(-c2cn(Cc3ccc(C(F)(F)F)cc3)nn2)sc1C(=O)NCc1cccnc1 [Example 4.2, 4-methyl-N-(pyridin-3-ylmethyl)-2-(1-(4-(trifluoromethyl)benzyl)-1H-1,2,3-triazol-4-yl)thiazole-5-carboxamide] |
| 237 to 240 °C | Cc1nc(-n2cc(-c3ccc(OCc4ccccc4)cc3)nn2)sc1C(=O)NCc1ccccc1 [Example 10.8, N-benzyl-2-(4-(4-(benzyloxy)phenyl)-1H-1,2,3-triazol-1-yl)-4-methylthiazole-5-carboxamide] |
| 167 to 170 °C | Cc1nc(-n2cc(CCc3ccccc3)nn2)sc1C(=O)NCc1ccccc1 [Example 10.2, N-benzyl-4-methyl-2-(4-phenethyl-1H-1,2,3-triazol-1-yl)thiazole-5-carboxamide] |
| 140 to 141 °C | Cc1nc(-c2cn(CC3CC3)nn2)sc1C(=O)NCc1cccnc1 [Example 4.5, 2-(1-(cyclopropylmethyl)-1H-1,2,3-triazol-4-yl)-4-methyl-N-(pyridin-3-ylmethyl)thiazole-5-carboxamide] |
| 114 to 115 °C | Cc1nc(-c2cn(Cc3ccc(F)cc3)nn2)sc1C(=O)NCc1ccccc1 [Example 1.2, N-benzyl-2-(1-(4-fluorobenzyl)-1H-1,2,3-triazol-4-yl)-4-methylthiazole-5-carboxamide] |
| 212 to 213 °C | Cc1nc(-c2cn(Cc3ccc(F)cc3)nn2)sc1C(=O)NCc1cccnc1 [Example 4.1, 2-(1-(4-fluorobenzyl)-1H-1,2,3-triazol-4-yl)-4-methyl-N-(pyridin-3-ylmethyl)thiazole-5-carboxamide] |
| 131 to 132 °C | Cc1nc(-c2cn(Cc3ccc(C(F)(F)F)cc3)nn2)sc1C(=O)NCc1ccccc1 [Example 1.3, N-benzyl-4-methyl-2-(1-(4-(trifluoromethyl)benzyl)-1H-1,2,3-triazol-4-yl)thiazole-5-carboxamide] |
| 124 to 125 °C | Cc1nc(-c2cn(CCC3CC3)nn2)sc1C(=O)NCc1cccnc1 [Example 4.4, 2-(1-(2-cyclopropylethyl)-1H-1,2,3-triazol-4-yl)-4-methyl-N-(pyridin-3-ylmethyl)thiazole-5-carboxamide] |
| 183 to 186 °C | Cc1nc(-n2nnc(C(=O)NCc3ccccc3)c2C)sc1C(=O)NCc1ccccc1 [Example 18.2, N-benzyl-2-(4-(benzylcarbamoyl)-5-methyl-1H-1,2,3-triazol-1-yl)-4-methylthiazole-5-carboxamide] |
| 159 to 162 °C | Cc1nc(-n2cc(CNc3ccccc3)nn2)sc1C(=O)NCc1ccccc1 [Example 10.10, N-benzyl-4-methyl-2-(4-((phenylamino)methyl)-1H-1,2,3-triazol-1-yl)thiazole-5-carboxamide] |
| 184 to 187 °C | Cc1nc(-n2cc(-c3ccccn3)nn2)sc1C(=O)NCc1ccccc1 [Example 10.6, N-benzyl-4-methyl-2-(4-(pyridin-2-yl)-1H-1,2,3-triazol-1-yl)thiazole-5-carboxamide] |
| 114 to 116 °C | Cc1nc(-n2cc(CCc3ccccc3)nn2)sc1C(=O)NCc1cccnc1 [Example 14.2, 4-methyl-2-(4-phenethyl-1H-1,2,3-triazol-1-yl)-N-(pyridin-3-ylmethyl)thiazole-5-carboxamide] |
| 140 to 143 °C | Cc1nc(-n2cc(COc3ccccc3)nn2)sc1C(=O)NCc1ccccc1 [Example 10.4, N-benzyl-4-methyl-2-(4-(phenoxymethyl)-1H-1,2,3-triazol-1-yl)thiazole-5-carboxamide] |
| 143 to 146 °C | Cc1nc(-n2cc(C(O)c3ccccc3)nn2)sc1C(=O)NCc1ccccc1 (stereo not shown) [Example 10.7, N-benzyl-2-(4-(hydroxy(phenyl)methyl)-1H-1,2,3-triazol-1-yl)-4-methylthiazole-5-carboxamide] |
| 114 to 115 °C | Cc1nc(-c2cc(CCc3ccccc3)no2)sc1C(=O)NCc1ccccc1 [Example 27.1, N-benzyl-4-methyl-2-(3-phenethylisoxazol-5-yl)thiazole-5-carboxamide] |
| 168 to 171 °C | COc1ccc(-c2cn(-c3nc(C)c(C(=O)NCc4ccccc4)s3)nn2)cc1 [Example 10.5, N-benzyl-2-(4-(4-methoxyphenyl)-1H-1,2,3-triazol-1-yl)-4-methylthiazole-5-carboxamide] |
| 117 to 119 °C | Cc1nc(-n2cc(-c3cccnc3)nn2)sc1C(=O)NCc1ccccc1 [Example 10.9, N-benzyl-4-methyl-2-(4-(pyridin-3-yl)-1H-1,2,3-triazol-1-yl)thiazole-5-carboxamide] |
| 81 to 84 °C | Cc1nc(-n2cc(CCCc3ccccc3)nn2)sc1C(=O)NCc1ccc(F)c(F)c1 [Example 14.1, N-(3,4-difluorobenzyl)-4-methyl-2-(4-(3-phenylpropyl)-1H-1,2,3-triazol-1-yl)thiazole-5-carboxamide] |
